# Laboratory results from PubChem BioAssay AID1053144 (Broad Institute, 2014).
# Test system: NPC TCF/LEF luciferase reporter, Wnt3a EC25, 24 h
# Assay: TCF/LEF reporter activation in neural progenitors – cell-based, iPS-derived NPC, luciferase, Wnt3a, cherry-pick, dose response (AID 1053144);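 note: Wnt3a stimulus is conditioned medium from Wnt3a-transfected mouse L cells at 5% in well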
row,Structure (SMILES),AC30 [µM]
1,CCOC(=O)c1c(Nc2ccc(OC)cc2)n[nH]c1C,11.4
2,Cc1ccsc1/C=N\NC(=O)c1ccc2c(c1)OCO2,4.78
3,COc1ccc(/C=N/Nc2ccccn2)cc1O,11.6
4,COc1ccc(C(=O)O/N=C(\N)c2ccc(Cl)cc2)cc1,9.22
5,Cc1csc(=NC(=O)c2ccccc2)n1C,8.72
6,COc1ccc(N2COC3c4cccc5cccc(c45)C32)cc1 (stereo not drawn),17.8
7,CCc1ccccc1-n1c(SCC(=O)N2CCCC2)nnc1-c1ccccn1,8.48
8,COc1ccc(C(=O)NC2=NCCS2)cc1,9.19
9,CCOC(=O)C1=C(COC(=O)c2cccc(N(C)C)c2)NC(=O)NC1C (stereo not drawn),11.8
10,COc1ccc(-c2ccc3ccccc3n2)cc1OC,9.49
11,O=C(/C=C/c1ccc(O)c(O)c1)c1ccccc1O,8.06
12,O=C(/C=C/c1ccccc1)c1c[nH]c2ccccc12,4.78
13,COc1ccc2cc(-c3ccn[nH]3)ccc2c1,4.78
14,CCOCC(=O)Nc1nc2ccc(OCC)cc2s1,11.8
15,C(=C\c1nc(-c2cccnc2)no1)/c1ccccc1,4.78
16,O=C(Nc1ccc(Cl)cc1)OCc1ccccn1,9.15
17,Nc1ccc(-c2nc3cc([N+](=O)[O-])ccc3o2)cc1,4.78
18,O=C(Nc1nc2cc3c(cc2s1)OCCO3)c1ccc([N+](=O)[O-])o1,9.12
19,COc1ccccc1C(=O)O/N=C(\N)c1ccc(Cl)cc1,6.87
20,O=C(N/N=C/C(Br)=C\c1ccccc1)c1cccs1,13.7
21,COc1ccc2oc(C(=O)c3ccccc3)c(N)c2c1,7.18
22,COc1cccc(NC(=O)c2csc3c2CCCC3)c1,4.78
23,O=C(Nc1ncccc1O)c1ccc2c(c1)OCCO2,5.13

row,Structure (SMILES),AC30 [µM]
1,CC(C)c1ccc(NC(=O)c2ccccc2NC(=O)C2CCCCC2C(=O)O)cc1 (stereo not drawn),15.5
2,CC(C)C1COC(c2cccc3ccccc23)=N1 (stereo not drawn),4.78
3,COc1ccc(N=C(C)c2sc3ccccc3c2O)cc1,4.78
4,CCOc1cc(/C=N/NC(=O)N/N=C/c2ccc(O)c(OCC)c2)ccc1O,13.1
5,Clc1ccc(SCc2cn3ccsc3n2)cc1,8.8
6,CCc1ccccc1NC(=O)c1cccc(NC(=O)/C=C/c2ccco2)c1,13.2
7,O=C(c1cc2ccccc2o1)c1cccs1,8.58
8,O=C(O)c1ccc2c(c1)C(=O)N(c1ccc(/C=C/C(=O)c3ccccc3)cc1)C2=O,18.7
9,Cc1ccccc1NC(=O)c1cc2ccccn2n1,4.78
10,c1ccc2c(c1)oc1c(Nc3ccc4c(c3)OCO4)ncnc12,4.78
11,Cc1cccc(/C(N)=N/OC(=O)c2ccc(Br)o2)c1,11.7
12,Nc1ccc(N=Nc2ccccc2Cl)c(N)n1,4.42
13,O=[N+]([O-])c1cccc(-c2nnc(-c3ccccc3F)o2)c1,8.84
14,Cc1oc(=O)c(NC(=O)c2cccc(Cl)c2)cc1C(=O)c1ccccc1,7.11
15,Nc1ccc2nc(-c3ccccc3)cnc2c1,8.28
16,CCCNC(=O)c1oc2ccc3c(c2c1C)C=CC(C)(C)O3,8.63
17,COc1cccc(/C=C2\N=C3CCCCCN3C2=O)c1,16.1
18,CCC(=O)NC1=C(Nc2ccc(N)cc2)C(=O)c2ccccc2C1=O,5.42
19,Fc1ccccc1-c1nc(-c2ccncc2)no1,2.79
20,CC(=O)Nc1sc2c(c1-c1nc3ccccc3s1)CN(C(C)C)CC2,2.43
21,CC1(C)CC(=O)C2=C(C1)c1c(ccc3ccccc13)NC2c1ccco1 (stereo not drawn),14.8
22,Fc1ccc2nc3[nH]c4ccccc4c3nc2c1,8.76
23,Cc1ccc2nc(-c3ccc(NC(=O)CSCC(=O)O)cc3)sc2c1,2.04

row,Structure (SMILES),AC30 [µM]
1,Cc1ccc(Nc2ncccc2C(N)=O)cc1[N+](=O)[O-],5.42
2,CCn1c(SCC(=O)c2ccc(Cl)cc2)nnc1C(C)C,12.1
3,Cc1cc(C)n(CCC(=O)N/N=C/c2ccc(Br)c([N+](=O)[O-])c2)n1,17.2
4,O=C(NCC1CCCO1)c1cc(-c2ccc(F)cc2)no1 (stereo not drawn),15.9
5,Nc1nc(-c2cc3ccccc3o2)cs1,4.78
6,O=Nc1c(-c2c(O)[nH]c3cc(Br)ccc23)[nH]c2ccccc12,0.942
7,Cc1cccc(NC(=O)c2c(O)c3ccccc3[nH]c2=O)c1,6.72
8,O=C(/C=C\c1ccc(-c2ccccc2)o1)c1ccccc1,4.16
9,O=C(Nc1ccccc1O)c1ccc(NC(=O)C2CC2)cc1,5.37
10,CCOC(=O)C(NC(=O)c1ccc(F)cc1)(Nc1sc2c(c1C(N)=O)CCC2)C(F)(F)F (stereo not drawn),16.3
11,Cc1ccc(C(=O)NNc2ncnc3ccccc23)cc1,8.88
12,O=c1cc(-c2cccs2)oc2ccc(Cl)cc12,5.83
13,COc1ccccc1CNC(=O)COc1ccccc1C(=O)c1cnn(-c2ccccc2)c1,10
14,O=C(Nc1ccccc1O)c1ccc(NS(=O)(=O)c2cccc3cccnc23)cc1,3.53
15,COc1cccc(-c2nnc(SCC(=O)N(C(C)C)C(C)C)o2)c1,20.7
16,CC1=NN(c2ccccc2)C(=O)C1N=Nc1ccccc1 (stereo not drawn),4.78
17,Cc1ccc(OCC(=O)Nc2ccccc2C(N)=O)cc1,7.04
18,O=C(c1cccs1)c1coc2ccc(O)cc12,15
19,O=C(NCCCn1ccnc1)c1cc(-c2ccccc2)on1,7.41
20,COc1cc(/C=C/c2ccc3cccc(O)c3n2)cc(OC)c1OC,13.7
21,COc1ccc(CCNC(=O)c2cc(-c3ccco3)on2)cc1OC,11.4
22,O=c1[nH]c(=O)n([C@H]2C[C@H](O)[C@@H](CO)O2)cc1Br,13.2
23,O=C(NCCN1CCOCC1)c1cc(-c2ccccc2)on1,8.01

row,Structure (SMILES),AC30 [µM]
1,CN(C)S(=O)(=O)Oc1cccc(C(=O)Nc2cccc(Cl)c2)c1,13
2,O=C(NC1CCCC1)c1cc(-c2ccccc2)on1,8.71
3,O=C(Nc1ccc2nc(-c3ccccc3)[nH]c2c1)c1ccco1,16.9
4,CSc1ccc(C(=O)/C=C/c2ccc(N)cc2)cc1,6.32
5,Cc1ccc2oc(-c3cccc(NC(=O)c4ccccn4)c3)nc2c1,10.9
6,CCOC(=O)c1ccc(-c2ccc(CO)o2)cc1,17.5
7,CCNc1nc(N)c(C(=O)c2ccc(Cl)s2)s1,11.3
8,CC1CCc2c(C(=O)Nc3ccccn3)csc2C1 (stereo not drawn),4.65
9,O=c1oc(CCO)cc2ccc(C#Cc3ccsc3)cc12,4.78
10,COc1ccc2[nH]c(=O)c(CNc3ccccc3C)cc2c1,17.3
11,Cc1cccc(NC(=O)c2ccccn2)c1C,11.4
12,Oc1ccc(Br)cc1-c1cc(-c2ccccc2F)[nH]n1,12.9
13,COc1cc(C(=O)O/N=C2\C=CC(=O)C(C)=C2)cc(OC)c1OC,16
14,O=C(c1ccc(-c2ccc(Cl)cc2Cl)o1)N1CCOCC1,8.53
15,CN1CCSc2ccc(C(=O)Nc3cc(F)ccc3F)cc21,2.35
16,COc1ccc(/C=C/c2ccncc2)cc1,11.1
17,Cc1cccc(C(=O)OCC(=O)N2CCCCCC2)c1C,12.1
18,Cc1ccc(C(=O)Nc2cccc(-c3ccc(N4CCOCC4)nn3)c2)cc1[N+](=O)[O-],9.12
19,Cn1c(SCC(=O)c2ccccc2)nnc1-c1ccco1,4.78
20,Nc1c2ccccc2nc2ccccc12,5.99
21,CNC(=O)c1ccsc1NC(=O)c1sc2ccccc2c1Cl,12.4
22,O=C(Nc1ccc(NC(=O)C2CCCCC2)nc1)c1cccs1,10.1
23,CCOC(=O)c1c(C)[nH]c(C(=O)COC(=O)C2(C)CC2(Cl)Cl)c1C (stereo not drawn),6.45

row,Structure (SMILES),AC30 [µM]
1,O=C(NCCO)c1ccc2c3n(nc2c1)-c1ccc(Cl)cc1CO3,12.3
2,O=C(NCCc1c[nH]c2ccccc12)c1cc2ccccc2oc1=O,13.4
3,COc1ccccc1OCc1cc(C(=O)N(C)CCC2CCOCC2)no1,9.94
4,O=C1C=C(c2ccc3[nH]ccc3c2)CCC1,10.1
5,O=C(OCC(=O)c1ccc(Br)s1)c1ccc(O)cc1,15.8
6,O=C(NCCc1ccccc1)c1cc(-c2ccco2)on1,10.7
7,O=C(COC(=O)c1cccs1)c1ccc2ccccc2c1,9.52
8,COCCNC(=O)c1cc2c(s1)-c1ccc(Cl)cc1SC2,11.2
9,Nc1ccccc1NC(=O)c1ccccc1,8.77
10,Cc1cc(-c2nc3ccccc3c(=O)o2)ccc1[N+](=O)[O-],16.2
11,CC1CC1C(=O)OCc1cc(=O)n2cc(Br)ccc2n1 (stereo not drawn),9.48
12,O=c1oc2ccccc2cc1-c1nc2ccccc2o1,8.58
13,O=C(Nc1ncccc1O)c1ccc2c(c1)OCO2,7.75
14,Cc1ccc2nc(-c3ccc(NS(=O)(=O)c4c(C)n(C)c(=O)n(C)c4=O)cc3)sc2c1,2.2
15,C=CCNC(=O)c1ccc2c3n(nc2c1)-c1ccc(Cl)cc1CO3,9.82
16,O=C1Nc2ccccc2S/C1=C/c1cccs1,12.9
17,O=C(C=Cc1ccco1)c1ccc2ccccc2c1,11.2
18,O=c1c2cccc(Cl)c2nc2n1Cc1ccccc1-2,16.7
19,O=C(O)c1ccc(/C=C(\c2nc3ccccc3[nH]2)c2nc3ccccc3s2)cc1,15.8
20,O=C(Nn1cnc2ccccc2c1=O)c1c(F)cccc1F,18.8
21,CSc1ccccc1C(=O)Nc1ccc2c(c1)CCC2,3.13
